This note sets out measurements from PMC9060465 (Proceedings of the National Academy of Sciences of the …, 2022).

Experiment [1] deals with T1, GLP-1R (Homo sapiens, UniProt P43220). The experiment can be described thus: β-arrestin 1 recruitment to the GLP-1R, NanoBRET. It counts as cell-based. Set-up: expressed in transfected cells. As for the experimental part: Functional potency (EC50) […]
and efficacy (% Top) of ligands to induce Gα s -GTPγS binding and cAMP accumulation in HEK293 cells expressing GIPR were determined. The equilibrium affinity (KD) of ligands for the immobilized ectodomain of the GIPR were quantified by surface plasmon resonance. Middle Panel: The affinity (Ki) of ligands for the GLP-1R was […]
(§1) Functional potency (EC50) and efficacy (% Top) of ligands to induce Gα s-GTPγS binding and cAMP accumulation in HEK293 cells expressing GLP-1R were determined. The equilibrium affinity (KD) of ligands for the immobilized ectodomain of the GLP-1R were quantified by surface plasmon resonance. […]
recruitment to the GLP-1R were determined using the NanoBRET approach. The potency (EC50) and efficacy (% Top) for ligands to induce GLP-1R Internalization were determined using diffusion-enhanced resonance energy transfer. […]
relative efficacy for NanoBRET assays. SPR data were analyzed using T200 evaluation software (Cytiva). All data are presented as geometric means with SEM and n values according to established practices. ND, not determined. NA, not applicable.
Target sequence in this assay (P43220 24-463): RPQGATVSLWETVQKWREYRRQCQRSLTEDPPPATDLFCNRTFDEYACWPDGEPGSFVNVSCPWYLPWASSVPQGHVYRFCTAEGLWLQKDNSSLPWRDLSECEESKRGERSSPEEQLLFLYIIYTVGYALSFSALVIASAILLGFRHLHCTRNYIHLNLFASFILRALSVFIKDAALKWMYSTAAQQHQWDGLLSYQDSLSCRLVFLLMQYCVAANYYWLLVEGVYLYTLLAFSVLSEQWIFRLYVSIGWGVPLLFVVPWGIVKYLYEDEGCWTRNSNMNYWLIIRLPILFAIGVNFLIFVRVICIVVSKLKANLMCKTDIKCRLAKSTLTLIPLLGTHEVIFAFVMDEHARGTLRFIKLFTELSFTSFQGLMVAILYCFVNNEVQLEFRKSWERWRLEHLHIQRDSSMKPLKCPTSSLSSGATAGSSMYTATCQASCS
Target sequence in this assay (P49407 whole entry partner, the tested form may be a part): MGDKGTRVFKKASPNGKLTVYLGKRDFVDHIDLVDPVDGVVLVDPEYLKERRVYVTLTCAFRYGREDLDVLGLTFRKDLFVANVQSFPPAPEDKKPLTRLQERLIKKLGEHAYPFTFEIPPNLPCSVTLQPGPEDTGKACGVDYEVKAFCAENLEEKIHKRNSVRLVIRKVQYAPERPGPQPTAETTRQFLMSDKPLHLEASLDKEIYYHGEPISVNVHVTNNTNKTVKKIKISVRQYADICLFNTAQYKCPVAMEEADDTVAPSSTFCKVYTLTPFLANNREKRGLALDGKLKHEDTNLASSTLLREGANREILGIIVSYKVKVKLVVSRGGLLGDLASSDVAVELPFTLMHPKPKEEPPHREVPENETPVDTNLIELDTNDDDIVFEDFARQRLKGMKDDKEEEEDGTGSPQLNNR

Experiment [2] has as its target T1, GLP-1R. Nature of the experiment: Ligand-induced GLP-1R internalization, SNAP-GLP-1R HEK293 cells. Format: cell-based.
Target sequence in this assay (P43220 24-463): as the sequence (P43220 24-463) above
Experiment [3] deals with T2, human GIPR (Homo sapiens, UniProt P48546).
T2 construct: expressed in transfected cells; host or cells: HEK293
T2 sequence (P48546 22-466): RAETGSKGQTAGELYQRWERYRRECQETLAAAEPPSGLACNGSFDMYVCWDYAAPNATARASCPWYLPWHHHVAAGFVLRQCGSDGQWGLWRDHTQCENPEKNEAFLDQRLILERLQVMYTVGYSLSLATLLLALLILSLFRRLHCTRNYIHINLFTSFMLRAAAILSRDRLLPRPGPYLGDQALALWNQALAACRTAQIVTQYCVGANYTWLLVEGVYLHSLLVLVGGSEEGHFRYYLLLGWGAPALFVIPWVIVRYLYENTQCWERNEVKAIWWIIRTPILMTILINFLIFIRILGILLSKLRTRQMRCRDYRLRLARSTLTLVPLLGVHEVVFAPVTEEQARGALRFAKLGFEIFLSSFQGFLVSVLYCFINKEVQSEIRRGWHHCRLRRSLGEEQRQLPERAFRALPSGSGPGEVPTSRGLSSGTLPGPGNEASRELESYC
The experiment can be described thus: GIPR Gαs [35S]GTPγS binding, GIPR-expressing membranes. Format: biochemical. How it is done:
(§2) Fig. 4. […] (B) Ligand-induced GTPγS binding of Gαs was performed using the GIPR-expressing membranes. […] (C) Agonist-stimulated cAMP production was measured in human GIPR expressing HEK293 cells. […] (E) Ligand-induced GTPγS binding of Gαs was performed using the GLP-1R-expressing membranes. […] (F) Agonist-stimulated cAMP production was measured in human GLP-1R-expressing HEK293 cells. […] Data presented are representative of n ≥ 3 independent experiments. Summarized data are shown in SI Appendix, Table 2. log M; log Molar.
We note that the albumin-binding propensity of fatty acid-modified peptides can confound a pharmacological comparison of molecules, given the common use of albumin and serum as nonspecific blocking agents in biological assays. Therefore, to obviate this, entirely albumin-free assays supplemented with bovine casein or bacitracin were used to prevent nonspecific binding ([10]).
Functional potency (EC50)
and efficacy (% Top) of ligands to induce Gα s -GTPγS binding and cAMP accumulation in HEK293 cells expressing GIPR were determined. The equilibrium affinity (KD) of
ligands for the immobilized ectodomain of the GIPR were quantified by surface plasmon resonance. […]
SPR data were analyzed using T200 evaluation software (Cytiva). All data are presented as geometric means with SEM and n values
(§3) according to established practices. ND, not determined. NA, not applicable.

The target in experiment [4] is T1, GLP-1R. The experiment can be described thus: GLP-1R low density cAMP accumulation in HEK293 cells. It counts as cell-based. More on the design: expressed in transfected cells; host or cells: HEK293. How it is done: as §2
We note that the albumin-binding propensity of fatty acid-modified peptides can confound a pharmacological comparison of molecules, given the common use of albumin and serum as nonspecific blocking agents in biological assays. Therefore, to obviate this, entirely albumin-free assays supplemented with bovine casein or bacitracin were used to prevent nonspecific binding ([10]). […]
Middle Panel: The affinity (Ki) of ligands for the GLP-1R was […]
as §1
SPR data were analyzed using T200 evaluation software (Cytiva). All data are presented as geometric means with SEM and n values according to established practices. ND, not determined. NA, not applicable.
Target sequence in this assay (P43220 24-463): as the sequence (P43220 24-463) above

The target in experiment [5] is T1, GLP-1R. The experiment can be described thus: GRK2 recruitment to the GLP-1R, NanoBRET. It counts as cell-based. Set-up: expressed in transfected cells; host or cells: freestyle HEK cells. As for the experimental part:
After 48 h, transfected cells were incubated in phosphate-buffered saline (PBS) containing 0.1% (wt/vol) bovine casein and varying concentrations of the ligands. […]
The potency (EC50) and efficacy (% Top) for ligands to induce GLP-1R Internalization were
determined using diffusion-enhanced resonance energy transfer.
relative efficacy for NanoBRET assays. SPR data were analyzed using T200 evaluation software (Cytiva). All data are presented as geometric means with SEM and n values
as §3
Target sequence in this assay (P43220 24-463): as the sequence (P43220 24-463) above
Target sequence in this assay (P25098 whole entry partner, the tested form may be a part): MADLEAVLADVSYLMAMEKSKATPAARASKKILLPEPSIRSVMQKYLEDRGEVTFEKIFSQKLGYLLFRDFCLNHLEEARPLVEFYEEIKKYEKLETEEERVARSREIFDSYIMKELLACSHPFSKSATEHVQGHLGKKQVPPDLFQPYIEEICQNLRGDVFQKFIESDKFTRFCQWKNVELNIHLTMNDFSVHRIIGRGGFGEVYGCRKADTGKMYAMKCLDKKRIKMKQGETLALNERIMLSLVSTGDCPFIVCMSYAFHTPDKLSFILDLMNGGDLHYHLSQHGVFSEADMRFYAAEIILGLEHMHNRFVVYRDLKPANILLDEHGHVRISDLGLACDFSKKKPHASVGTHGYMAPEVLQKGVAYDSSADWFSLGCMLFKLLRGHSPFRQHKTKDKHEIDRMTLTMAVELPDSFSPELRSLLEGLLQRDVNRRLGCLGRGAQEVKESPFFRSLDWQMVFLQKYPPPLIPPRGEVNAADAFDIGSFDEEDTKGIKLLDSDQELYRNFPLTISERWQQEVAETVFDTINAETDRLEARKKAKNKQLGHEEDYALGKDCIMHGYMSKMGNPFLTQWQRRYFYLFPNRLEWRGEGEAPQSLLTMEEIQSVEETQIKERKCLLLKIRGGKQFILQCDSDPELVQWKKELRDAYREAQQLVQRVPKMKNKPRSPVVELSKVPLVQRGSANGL

Each structure is given as a SMILES string. pEC50: −log10 of the molar value.

On to `CC[C@H](C)[C@H](NC(=O)[C@H](CC(C)C)NC(=O)[C@H](Cc1c[nH]c2ccccc12)NC(=O)[C@H](CCC(N)=O)NC(=O)[C@@H](NC(=O)[C@H](Cc1ccccc1)NC(=O)[C@H](C)NC(=O)[C@H](CCCCN)NC(=O)[C@H](CCC(N)=O)NC(=O)[C@H](C)NC(=O)[C@@H](NC(=O)[C@H](CCCCN)NC(=O)[C@H](CC(=O)O)NC(=O)[C@H](CC(C)C)NC(=O)C(C)(C)NC(=O)[C@@H](NC(=O)[C@H](CO)NC(=O)[C@H](Cc1ccc(O)cc1)NC(=O)[C@H](CC(=O)O)NC(=O)[C@H](CO)NC(=O)[C@@H](NC(=O)[C@H](Cc1ccccc1)NC(=O)[C@@H](NC(=O)CNC(=O)[C@H](CCC(=O)O)NC(=O)C(C)(C)NC(=O)[C@@H](N)Cc1ccc(O)cc1)[C@@H](C)O)[C@@H](C)O)[C@@H](C)CC)[C@@H](C)CC)C(C)C)C(=O)N[C@@H](C)C(=O)NCC(=O)NCC(=O)N1CCC[C@H]1C(=O)N[C@@H](CO)C(=O)N[C@@H](CO)C(=O)NCC(=O)N[C@@H](C)C(=O)N1CCC[C@H]1C(=O)N1CCC[C@H]1C(=O)N1CCC[C@H]1C(=O)N[C@@H](CO)C(N)=O` [Tzp∆C20], for which the pEC50 in experiment [1] (NanoBRET, geometric mean (SEM, n), read-out: GLP-1R β-Arr1 Recruitment EC50) is 8.40; in experiment [2] (diffusion-enhanced resonance energy transfer, SNAP-GLP-1R HEK293 cells, 37 °C, geometric mean (SEM, n)), 8.26; in experiment [3] (Gαs-GTPγS binding, GIPR-expressing membranes, albumin-free, geometric mean (SEM, n), read-out: GIPR GTPγS Recruitment EC50), 10.13; in experiment [4] (cAMP accumulation, HEK293 cells expressing GLP-1R, albumin-free, geometric mean (SEM, n)), 8.98; in experiment [5] (NanoBRET, transfected freestyle HEK cells, PBS with 0.1% casein, geometric mean (SEM, n)), 8.72. In addition, the “GLP-1R β-Arr1 Recruitment Top” value in experiment [1] (efficacy (% Top), relative efficacy to GLP-1, (SEM)) was 25.9 (2.6) %. The “GLP-1R Internalization Top” value in experiment [2] (efficacy (% Top), percent internalization compared to maximal GLP-1, (SEM)) is 90.6 (3.0) %. The “GIPR GTPγS Recruitment Top” value in experiment [3] (efficacy (% Top), normalized to GIP(1-42), (SEM)) was 91.0 (3.5) %. Moreover, the “GLP-1R Low Density cAMP Top” value in experiment [4] (efficacy (% Top), normalized to GLP-1(7-36), (SEM)) is reported as 105 (2) %. Moreover, in experiment [5] (efficacy (% Top), relative to maximal GLP-1, (SEM)), the “GLP-1R GRK2 Recruitment Top” value is given as 39.4 (3.7) %.
